Where two headings read alike, the source gives them in different places.
Experiments:
HepG-2 cell line = assay: MTT cytotoxicity assay, HepG-2; assay type: cell-based; details: Homo sapiens, read-out: IC50 (mean±SD) HepG-2
Description: (§1) The recently incorporated quinazolinone-based targets 1–4, 6–13 underwent evaluation for their cytotoxic effects with in vitro employing MTT technique, according to the procedure that has been published[48]–[50], utilizing human fibroblast-derived BJ-1 normal cell line, and human cancer liver HepG-2, breast MCF-7, and colon HCT-116 cell lines. These cell lines were purchased from Karolinska Center, Department of Oncology and Pathology, Karolinska Institute and Hospital, Stockholm, Sweden, There were further details in the supplemental file.
(§2) The cell lines were obtained from Karolinska Center, Department of Oncology and Pathology, Karolinska Institute and Hospital, Stockholm, Sweden as follows: human liver HepG-2, breast MCF-7, and colorectal HCT-116 cancer cell lines and human fibroblast-derived BJ-1 normal cell line. Exponentially, cells were placed in 10^4 cells/ well for 24 h, and then add fresh medium which containing different concentration of the tested sample. Serial two-fold dilution of the tested sample were added using a multichannel pipette. Moreover, all cells were cultivated at 37 °C, 5% CO2 and 95% humidity. Also, incubation of control cells occurred at 37 °C. However, after incubation for 24 h different concentrations of sample (25, 12.5, 6.25 and 3.125 µM) were added and continued the incubation for 48 h, then, add the crystal violet solution 1% to each well for 0.5 h to examine viable cells. Rinse the wells using water until no stain. After that, add 30% glacial acetic acid to all wells with shaking plates on Microplate reader (TECAN, Inc.) to measure the absorbance, using a test wavelength of 490 nm. Besides, compare the treated samples with the control cell. The cytotoxicity was estimated by IC50 in (μM), the concentration that inhibits 50% of growth of cancer cell.

MCF-7 cell line = assay: MTT cytotoxicity assay, MCF-7; assay type: cell-based; details: Homo sapiens, read-out: IC50 (mean±SD) MCF-7
Description: as §1, §2

HCT-116 cell line = assay: MTT cytotoxicity assay, HCT-116; assay type: cell-based; details: Homo sapiens, read-out: IC50 (mean±SD) HCT-116
Description: as §1, §2

BJ-1 normal cell line = assay: MTT cytotoxicity assay, normal BJ-1 fibroblasts (safety profile); assay type: cell-based; details: Homo sapiens, read-out: IC50 (mean±SD) BJ-1
Experimental: […]. The safety profiles of all derivatives were assessed through cytotoxic evaluation using human fibroblast-derived BJ-1 normal cell lines. […].
as §1, §2

VEGFR-2 = VEGFR-2 (Homo sapiens, UniProt P35968); assay: In vitro VEGFR-2 inhibition assay (ELISA); details: read-out: IC50 (mean ± SD) VEGFR-2; average of three values
VEGFR-2, sequence (P35968 20-1356): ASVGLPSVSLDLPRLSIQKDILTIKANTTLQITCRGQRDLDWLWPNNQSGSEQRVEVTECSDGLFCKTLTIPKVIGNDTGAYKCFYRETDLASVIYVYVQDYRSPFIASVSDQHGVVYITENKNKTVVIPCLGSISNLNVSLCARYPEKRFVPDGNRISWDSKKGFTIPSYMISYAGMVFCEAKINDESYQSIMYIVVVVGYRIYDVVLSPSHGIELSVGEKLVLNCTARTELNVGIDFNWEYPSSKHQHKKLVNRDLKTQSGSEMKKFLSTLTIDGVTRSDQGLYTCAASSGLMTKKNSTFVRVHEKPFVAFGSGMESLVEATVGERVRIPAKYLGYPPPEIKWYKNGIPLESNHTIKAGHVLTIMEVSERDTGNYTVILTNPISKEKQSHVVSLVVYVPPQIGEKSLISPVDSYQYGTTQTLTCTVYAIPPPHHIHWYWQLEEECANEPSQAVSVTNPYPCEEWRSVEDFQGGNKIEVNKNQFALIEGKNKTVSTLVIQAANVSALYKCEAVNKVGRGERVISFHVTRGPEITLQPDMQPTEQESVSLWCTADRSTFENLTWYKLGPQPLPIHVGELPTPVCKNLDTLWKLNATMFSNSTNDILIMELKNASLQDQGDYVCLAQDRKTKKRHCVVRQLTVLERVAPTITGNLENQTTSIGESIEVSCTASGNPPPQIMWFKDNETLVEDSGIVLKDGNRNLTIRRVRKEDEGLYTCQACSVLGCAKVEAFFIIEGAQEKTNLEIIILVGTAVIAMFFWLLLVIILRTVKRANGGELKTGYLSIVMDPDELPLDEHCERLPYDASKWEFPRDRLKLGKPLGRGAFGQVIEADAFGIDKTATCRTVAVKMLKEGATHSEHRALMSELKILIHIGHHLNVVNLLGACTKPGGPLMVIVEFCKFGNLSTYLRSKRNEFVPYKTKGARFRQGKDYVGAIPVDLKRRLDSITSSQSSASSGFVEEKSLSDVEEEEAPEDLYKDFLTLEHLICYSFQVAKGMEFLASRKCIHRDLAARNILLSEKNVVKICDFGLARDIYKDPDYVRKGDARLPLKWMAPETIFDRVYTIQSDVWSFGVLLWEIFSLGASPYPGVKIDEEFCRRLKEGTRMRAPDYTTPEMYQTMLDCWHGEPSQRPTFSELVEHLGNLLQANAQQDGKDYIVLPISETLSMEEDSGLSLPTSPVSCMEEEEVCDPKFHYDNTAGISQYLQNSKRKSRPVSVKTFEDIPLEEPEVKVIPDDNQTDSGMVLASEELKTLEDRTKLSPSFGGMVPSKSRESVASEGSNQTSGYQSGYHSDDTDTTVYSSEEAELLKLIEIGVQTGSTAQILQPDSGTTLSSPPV

EGFR = EGFR (Homo sapiens, UniProt P00533); assay: In vitro EGFR inhibition assay (Kinase-Glo luminescence)
EGFR, sequence (P00533 25-1210): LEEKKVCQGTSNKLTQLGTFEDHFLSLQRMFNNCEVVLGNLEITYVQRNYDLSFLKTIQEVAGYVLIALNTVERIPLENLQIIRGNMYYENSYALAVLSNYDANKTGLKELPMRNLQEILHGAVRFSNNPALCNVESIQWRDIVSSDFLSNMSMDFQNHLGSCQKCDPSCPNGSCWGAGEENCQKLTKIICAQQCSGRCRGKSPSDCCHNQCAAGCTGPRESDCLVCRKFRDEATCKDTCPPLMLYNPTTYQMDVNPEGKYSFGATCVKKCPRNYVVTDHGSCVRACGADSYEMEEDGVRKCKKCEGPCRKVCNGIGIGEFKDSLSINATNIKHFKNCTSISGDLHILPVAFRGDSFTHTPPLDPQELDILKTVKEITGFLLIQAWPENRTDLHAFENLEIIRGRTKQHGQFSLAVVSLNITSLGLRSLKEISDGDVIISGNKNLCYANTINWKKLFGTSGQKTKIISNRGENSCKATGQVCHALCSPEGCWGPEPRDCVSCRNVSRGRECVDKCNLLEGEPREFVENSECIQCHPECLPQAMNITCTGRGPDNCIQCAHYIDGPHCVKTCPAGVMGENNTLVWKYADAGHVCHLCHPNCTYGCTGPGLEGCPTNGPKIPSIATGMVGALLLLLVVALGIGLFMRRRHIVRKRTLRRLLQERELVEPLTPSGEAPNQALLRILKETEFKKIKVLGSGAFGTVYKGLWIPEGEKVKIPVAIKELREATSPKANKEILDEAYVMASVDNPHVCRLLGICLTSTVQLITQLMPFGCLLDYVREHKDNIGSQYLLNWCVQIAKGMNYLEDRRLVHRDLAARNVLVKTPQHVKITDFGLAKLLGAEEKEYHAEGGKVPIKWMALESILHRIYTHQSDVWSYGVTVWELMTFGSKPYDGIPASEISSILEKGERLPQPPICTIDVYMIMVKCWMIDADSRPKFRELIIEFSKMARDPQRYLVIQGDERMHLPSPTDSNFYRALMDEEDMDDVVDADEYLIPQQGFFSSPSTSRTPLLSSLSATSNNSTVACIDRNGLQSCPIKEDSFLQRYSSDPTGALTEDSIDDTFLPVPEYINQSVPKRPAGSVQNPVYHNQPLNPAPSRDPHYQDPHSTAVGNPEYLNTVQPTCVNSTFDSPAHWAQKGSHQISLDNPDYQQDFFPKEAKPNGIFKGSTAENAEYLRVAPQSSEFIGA

[1] = HepG2, HepG-2 liver cancer cells, 48 h incubation, mean of three values
[2] = MCF7, MCF-7 breast cancer cells, 48 h incubation, mean of three values
[3] = HCT-116 colorectal cancer cells, 48 h incubation, mean of three values
[4] = BJ-1 normal fibroblast-derived cells, 48 h incubation, mean of three values

SMILES	melting point	IC50 (VEGFR-2)	IC50 (EGFR)	IC50 (HepG-2 cell line; [1])	IC50 (MCF-7 cell line; [2])	IC50 (HCT-116 cell line; [3])	IC50 (BJ-1 normal cell line; [4])	IC50 (HepG-2 cell line; HepG2, 48 h)	IC50 (MCF-7 cell line; MCF7, 48 h)	IC50 (HCT-116 cell line; HCT-116, 48 h)	IC50 (BJ-1 normal cell line; Fibroblast, 48 h)
O=c1c2ccccc2nc(S)n1-c1ccccc1 [Compound 1]	–	–	–	21.9 ± 1.9 µM	16.1 ± 1.1 µM	18.6 ± 1.5 µM	> 25 µM	–	–	–	–
Cn1c(S)nc2ccccc2c1=O [Compound 2]	–	–	–	24.1 ± 3.1 µM	14.9 ± 1.3 µM	16.1 ± 1.3 µM	> 25 µM	–	–	–	–
C#CCSc1nc2ccccc2c(=O)n1-c1ccccc1 [Compound 3]	–	–	–	> 25 µM	15.9 ± 1.3 µM	14.8 ± 1.6 µM	> 25 µM	–	–	–	–
COc1cccc2c1C(=O)c1c(O)c3c(c(O)c1C2=O)C[C@@](O)(C(=O)CO)C[C@@H]3O[C@H]1C[C@H](N)[C@H](O)[C@H](C)O1 [Doxorubicin, reference compound]	–	–	–	4.8 ± 0.5 µM	5.6 ± 0.3 µM	6.5 ± 0.5 µM	32.1 ± 3.1 µM	–	–	–	–
C#Cc1cccc(Nc2ncnc3cc(OCCOC)c(OCCOC)cc23)c1 [Erlotinib, reference compound]	–	–	–	–	–	–	–	7.8 ± 0.2 µM	4.3 ± 0.1 µM	7.3 ± 0.2 µM	58.3 ± 1.4 µM

Now from value to compound, other results behind:

melting point	IC50 (VEGFR-2)	IC50 (EGFR)	SMILES	IC50 (HepG-2 cell line; [1])	IC50 (MCF-7 cell line; [2])	IC50 (HCT-116 cell line; [3])	IC50 (BJ-1 normal cell line; [4])	IC50 (HepG-2 cell line; HepG2, 48 h)	IC50 (MCF-7 cell line; MCF7, 48 h)	IC50 (HCT-116 cell line; HCT-116, 48 h)	IC50 (BJ-1 normal cell line; Fibroblast, 48 h)
163 to 165 °C	–	–	C#CCSc1nc2ccccc2c(=O)n1C [Compound 4, 3-methyl-2-(prop-2-yn-1-ylthio)quinazolin-4(3 H)-one]	21.9 ± 2.7 µM	14.6 ± 1.1 µM	13.5 ± 1.1 µM	> 25 µM	–	–	–	–
90 to 92 °C	32.25 ± 0.25 µM	18.63 ± 0.14 µM	CC(=O)OC[C@H]1O[C@@H](n2cc(CSc3nc4ccccc4c(=O)n3-c3ccccc3)nn2)[C@H](OC(C)=O)[C@@H](OC(C)=O)[C@H]1OC(C)=O [Compound 6, 2-(((1-[2,3,4,6-Tetra-O-acetyl-β-D-galactopyranosyl]-1 H-1,2,3-triazol-4-yl)methyl)thio)-3-phenylquinazolin-4(3 H)-one]	19.2 ± 2.1 µM	13.4 ± 1.2 µM	3.2 ± 0.1 µM	> 25 µM	–	–	–	–
–	36.33 ± 0.17 µM	17.94 ± 0.1 µM	CC(=O)OC[C@H]1O[C@@H](n2cc(CSc3nc4ccccc4c(=O)n3C)nn2)[C@H](OC(C)=O)[C@@H](OC(C)=O)[C@H]1OC(C)=O [Compound 7, 2-(((1-[2,3,4,6-Tetra-O-acetyl-β-D-galactopyranosyl]-1 H-1,2,3-triazol-4-yl)methyl)thio)-3-methylquinazolin-4(3 H)-one]	21.5 ± 2.5 µM	17.3 ± 0.5 µM	5.5 ± 0.1 µM	22.9 ± 3.2 µM	–	–	–	–
210 to 212 °C	28.4 ± 0.5 µM	21.38 ± 0.15 µM	CC(=O)O[C@@H]1[C@@H](OC(C)=O)[C@H](OC(C)=O)CO[C@H]1n1cc(CSc2nc3ccccc3c(=O)n2-c2ccccc2)nn1 [Compound 8, 2-(((1-[2,3,4-tri-O-acetyl-β-D-xylopyranosyl]-1 H-1,2,3-triazol-4-yl)methyl)thio)-3-phenylquinazolin-4(3 H)-one]	21.4 ± 3.1 µM	14 ± 1.2 µM	< 3.12 µM	> 25 µM	–	–	–	–
–	22.33 ± 0.1 µM	16.75 ± 0.05 µM	O=c1c2ccccc2nc(SCc2cn([C@@H]3O[C@H](CO)[C@H](O)[C@H](O)[C@H]3O)nn2)n1-c1ccccc1 [Compound 10, 2-(((1-[β-D-Galactopyranosyl]-1 H-1,2,3-triazol-4-yl)methyl)thio)-3-phenylquinazolin-4(3 H)-one]	17.1 ± 1.1 µM	8.1 ± 0.6 µM	6.4 ± 0.4 µM	23.5 ± 3.1 µM	–	–	–	–
–	22.86 ± 0.13 µM	0.35 ± 0.11 µM	Cn1c(SCc2cn([C@@H]3O[C@H](CO)[C@H](O)[C@H](O)[C@H]3O)nn2)nc2ccccc2c1=O [Compound 11, 2-(((1-[β-D-Galactopyranosyl]-1 H-1,2,3-triazol-4-yl)methyl)thio)-3-methylquinazolin-4(3 H)-one]	17.8 ± 2.1 µM	5.7 ± 0.2 µM	5.9 ± 0.1 µM	> 25 µM	–	–	–	–
–	13.63 ± 0.08 µM	15.88 ± 0.14 µM	O=c1c2ccccc2nc(SCc2cn([C@@H]3OC[C@@H](O)[C@H](O)[C@H]3O)nn2)n1-c1ccccc1 [Compound 12, 2-(((1-[β-D-Xylopyranosyl]-1 H-1,2,3-triazol-4-yl)methyl)thio)-3-phenylquinazolin-4(3 H)-one]	15.1 ± 1.9 µM	6.9 ± 0.3 µM	3 ± 0.3 µM	24.7 ± 2.4 µM	–	–	–	–

From article PMC11500008, “Novel quinazolin-4-one based derivatives bearing 1,2,3-triazole and glycoside moieties as potential cytotoxic agents through dual EGFR and VEGFR-2 inhibitory activity” (Scientific Reports, 2024)
